Consider 1 substance from publication PMC8729770, “In Vitro Evaluation of Antimicrobial Peptides from the Black Soldier Fly (Hermetia Illucens) against a Selection of Human Pathogens” (Microbiology Spectrum, 2022).

Like-named read-outs stand apart in the source and are kept apart here. Ends that are not written are not given here.

The test system of one assay is E. coli ATCC 8739. To be noted: ATCC 8739, 16 h.
For assay [1], the system named is P. aeruginosa ATCC 9027. As to the kind of experiment: Outer membrane permeabilization with N-phenyl-naphthylamine. Conditions: compared with 16 μM polymyxin B. Type of assay: cell-based, Pseudomonas aeruginosa. The protocol:
N-phenyl-naphthylamine (NPN; Tokyo chemical industry [TCI]) was used to study the permeabilization of the OM as described by […] et al. ([81]). Briefly, P. aeruginosa ATCC 9027 was grown until the mid-log phase in MHB. Afterwards, the cells were centrifuged (3,000 × g, 15 min) and resuspended in 5 mM HEPES buffer (pH 7.4) to an OD600 of 0.5. […] Fluorescence was measured every 5 min during 1 h using a microplate reader (Promega) with λexcitation = 350 nm and λemission = 420. Data were normalized based on the fluorescent signal in the presence of 50 μL HEPES buffer, 50 μL NPN, and 100 μL bacteria. Experiments were carried out in triplicate.

In a further assay the test system is B. cenocepacia LMG 16656. Conditions: for IC50: read-out: IC50 B. cenocepacia LMG 16656, starting at 32 μM, 10^5 CFU/mL, 48 h, 37°C, resazurin; for MIC B. cenocepacia LMG 16656: visual. For orientation: Alamar Blue is a resazurin reagent that responds to reducing activity.
For assay [2], the system named is P. aeruginosa ATCC 9027. As to the kind of experiment: Cytoplasmic membrane depolarization assay, diSC3(5). Type of assay: cell-based, Pseudomonas aeruginosa. Conditions: 32-0.25 μM. The protocol: To study the effects of the peptides on the membrane potential, 3,3′-dipropylthiadicarbocyanine iodide (diSC3(5); TCI) was used as described by Kwon et al. ([82]). P. aeruginosa ATCC 9027 was grown until the mid-log phase in MHB. Afterwards, the cells were centrifuged (3,000 × g, 15 min), washed and resuspended in 5 mM HEPES buffer (pH 7.4) supplemented with 20 mM glucose and 100 mM KCl to an OD600 of 0.2. […] The fluorescent signal was measured at λexcitation = 620 nm and λemission = 670 with a microplate reader (Promega) every 5 min during 1 h. Furthermore, 0.1% Triton-X was used as a positive control. Data were normalized based on the fluorescent signal in the presence of 50 μL supplemented HEPES buffer and 150 μL diSC3(5)-bacterial suspension. The assay was carried out in triplicate.

The test system of a further assay is P. aeruginosa ATCC 15442. To be noted: ATCC 15442, 16 h.
The test system of another assay is S. aureus ATCC 6538. It counts as cell-based, Staphylococcus aureus. Conditions: determined visually, 16 h. Summed up:
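Peptides were serially diluted (64–0.25 μM, repeat 32–0.016 μM) against 5 × 10^3 CFU/mL inocula in MHB (bacteria) or RPMI (fungi) at 37°C for 16 h (bacteria), 24 h (C. albicans) or 48 h (A. fumigatus). MIC was read visually with resazurin readout; MBC was defined as ≥3 log reduction on MHA.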

Assay [3] deals with P. aeruginosa ATCC 9027. Type of assay: cell-based, Pseudomonas aeruginosa. To be noted: for MBC P. aeruginosa ATCC 9027: plated on MHA, ≥3 log reduction vs growth control.
Assay [4] has as its system P. aeruginosa ATCC 9027. As to the kind of experiment: Time-to-kill analysis. Type of assay: cell-based, Pseudomonas aeruginosa. On the procedure:
To investigate the bactericidal kinetics of the selected AMPs, a time-to-kill analysis was performed as described previously by Mascio et al. ([78]). Briefly, peptide serial dilutions were prepared in 96-well plates (10 μL) and mixed with 190 μL of a P. aeruginosa ATCC 9027 culture of an optical density measured at a wavelength of 600 nm (OD600) of 0.1. Plates were incubated at 37°C and at selected time points (0 h, 0.5 h, 1 h, 2 h, 4 h, and 5 h), aliquots were removed and serially diluted in PBS. The dilutions were plated on TSA and incubated overnight at 37°C. Afterwards, bacterial viability was assessed by performing a standard plate count. Bactericidal activity was defined as a ≥3-log reduction compared with the untreated bacterial control. To avoid carry-over effect of the peptides, the undiluted sample was not plated, leading to a quantification limit of 10^3 CFU/mL ([78]). Bacterial counts were calculated for each AMP concentration at each time point using the average plate count. Afterwards, log10 reductions of the bacterial counts were calculated using the following formula: log10 reduction = log10 (viable microorganisms without AMP treatment/viable microorganisms with AMP treatment). Next, the average log10 reductions and the standard deviations of five independent experiments were calculated and visualized using GraphPad Prism 8.

For “RWYKKIFKPVEKAVQRVRDGTLQALGVAQQAANVYATAQGAQQQRHA-NH2 [Hill-Cec10]”, the “MIC E. coli ATCC 8739” value in the assay on E. coli ATCC 8739 amounted to 1 µM. For the same substance, the “maximum NPN uptake” value in the assay on P. aeruginosa ATCC 9027 [1] (at 32 μM) is reported as 75%. For the same substance, the “concentration to achieve at least 50% NPN uptake” value in the assay on P. aeruginosa ATCC 9027 [1] came out at 4 µM. Further, the IC50 in the assay on B. cenocepacia LMG 16656 (repeat 1) and in the assay on B. cenocepacia LMG 16656 (repeat 2) was above 32 µM in each case. The “MIC B. cenocepacia LMG 16656” value in the assay with B. cenocepacia LMG 16656 (repeat 1) and against B. cenocepacia LMG 16656 (repeat 2) was above 32 µM in each case. Besides, in the assay on P. aeruginosa ATCC 9027 [2], the “cytoplasmic membrane depolarization (diSC3(5) fluorescence)” value is “cause cytoplasmic membrane depolarization”. In addition, the “MIC P. aeruginosa ATCC 15442” value against P. aeruginosa ATCC 15442 was found to be 4 µM. The “MIC S. aureus ATCC 6538” value with S. aureus ATCC 6538 (repeat 1, 64-0.25 μM) is above 64.00 µM; with S. aureus ATCC 6538 (repeat 2, 32-0.016 μM), above 32.00 µM. The “MBC P. aeruginosa ATCC 9027” value worked out at 16.00 µM in the assay with P. aeruginosa ATCC 9027 [3] (repeat 1) and 2.00 µM in the assay with P. aeruginosa ATCC 9027 [3] (repeat 2). Besides, in the assay with P. aeruginosa ATCC 9027 [3] (repeat 2, 32-0.016 μM, determined visually, 16 h), the “MIC P. aeruginosa ATCC 9027” value is 2.00 µM. Moreover, the “log10 reduction of P. aeruginosa” value was 2.44 ± 0.46 log10 in the assay on P. aeruginosa ATCC 9027 [4] (8 μM (8 × MIC Hill-Cec1, 4 × MIC Hill-Cec10), after 5 h, mean ± SD of five experiments); 4.60 ± 0.94 log10 in the assay with P. aeruginosa ATCC 9027 [4] (16 μM (8 × MIC), after 5 h, mean ± SD of five experiments); at least 3 log10 in the assay on P. aeruginosa ATCC 9027 [4] (16 μM (8 × MIC), always (all experiments)). The “concentration needed to maintain bactericidal activity” value in the assay with P. aeruginosa ATCC 9027 [4] (time-to-kill, ≥3-log10 reduction vs growth control) was at least 16 µM.

One may read the IC50 as the concentration at which inhibition is half-maximal.
